Test results as given in patent US9765037B2, “Compositions and methods for treating toxoplasmosis, cryptosporidiosis, and other apicomplexan protozoan related diseases” (University of Washington Through its Center for …, priority 2010, dated 2017).
Like-named read-outs stand apart in the source and are kept apart here.

Tests used:
[1] = target: CpCDPK1 (Cryptosporidium parvum (strain Iowa II), UniProt A3FQ16); assay: biochemical; assay type: biochemical
[2] = target: TgCDPK1 (Toxoplasma gondii, UniProt Q9BJF5); assay type: biochemical
[3] = tested on: human promyelocytic leukemia (HL-60); assay: Growth inhibition of human cell line HL-60
[4] = target: PfCDPK1 (Plasmodium falciparum (isolate 3D7), UniProt P62344); assay: biochemical
[5] = target: PfCDPK4 (Plasmodium falciparum (isolate 3D7), UniProt Q8IBS5); assay: biochemical
[6] = tested on: human lymphocyte (CRL8155); assay: Growth inhibition of human cell line CRL8155
[7] = Table 8, read-out: IC50 (μM) CpCDPK1

Chain of CpCDPK1 (A3FQ16 1-538): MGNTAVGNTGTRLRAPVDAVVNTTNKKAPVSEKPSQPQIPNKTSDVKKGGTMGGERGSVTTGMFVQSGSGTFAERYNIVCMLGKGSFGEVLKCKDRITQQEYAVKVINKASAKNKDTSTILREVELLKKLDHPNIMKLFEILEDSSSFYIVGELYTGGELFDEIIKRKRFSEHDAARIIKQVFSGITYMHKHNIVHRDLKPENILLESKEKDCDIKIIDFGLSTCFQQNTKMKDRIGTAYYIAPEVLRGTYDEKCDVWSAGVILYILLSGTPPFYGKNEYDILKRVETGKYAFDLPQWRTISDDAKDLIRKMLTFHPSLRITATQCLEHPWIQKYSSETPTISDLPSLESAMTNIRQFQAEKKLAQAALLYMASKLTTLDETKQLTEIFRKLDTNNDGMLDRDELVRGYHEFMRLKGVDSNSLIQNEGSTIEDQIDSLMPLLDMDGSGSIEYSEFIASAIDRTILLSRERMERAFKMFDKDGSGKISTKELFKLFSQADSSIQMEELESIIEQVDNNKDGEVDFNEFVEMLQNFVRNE
Chain of TgCDPK1 (Q9BJF5 1-507): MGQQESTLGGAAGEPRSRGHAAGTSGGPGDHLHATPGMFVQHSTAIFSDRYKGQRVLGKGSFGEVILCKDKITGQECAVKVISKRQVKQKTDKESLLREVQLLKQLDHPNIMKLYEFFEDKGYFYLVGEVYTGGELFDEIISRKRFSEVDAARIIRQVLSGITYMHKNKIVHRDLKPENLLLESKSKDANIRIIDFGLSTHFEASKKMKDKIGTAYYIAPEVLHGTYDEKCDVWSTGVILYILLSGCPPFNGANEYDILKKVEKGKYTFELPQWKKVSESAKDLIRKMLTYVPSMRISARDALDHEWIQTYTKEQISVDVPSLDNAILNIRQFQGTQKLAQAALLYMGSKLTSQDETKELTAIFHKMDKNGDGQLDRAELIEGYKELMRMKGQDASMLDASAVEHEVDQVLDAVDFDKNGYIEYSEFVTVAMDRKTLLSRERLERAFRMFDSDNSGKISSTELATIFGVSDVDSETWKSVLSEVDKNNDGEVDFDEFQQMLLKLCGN

Structure (SMILES) | IC50 ([2]; read-out: IC50 (μM) TgCDPK1) [µM] | IC50 ([1]; read-out: CpCDPK1 IC50) [µM] | IC50 [1, 7] [µM] | other results
Cn1nc(Cc2cccc3ccccc23)c2c(N)ncnc21 [Compound 5a, 1-methyl-3-(naphthalen-1-ylmethyl)-1H-pyrazolo[3,4-d]pyrimidin-4-amine] | 0.458 | – | – | IC50 ([1]; read-out: IC50 (μM) CpCDPK1): 0.413 µM
C#CCn1nc(Cc2cccc3ccccc23)c2c(N)ncnc21 [Compound 5b, 3-(naphthalen-1-ylmethyl)-1-(prop-2-ynyl)-1H-pyrazolo[3,4-d]pyrimidin-4-amine] | 0.086 | 0.13 | – | –
NC(=O)Cn1nc(Cc2cccc3ccccc23)c2c(N)ncnc21 [Compound 5c, 2-(4-amino-3-(naphthalen-1-ylmethyl)-1H-pyrazolo[3,4-d]pyrimidin-1-yl)acetamide] | 1.92 | 2 | 2.04 | –
Nc1ncnc2c1c(Cc1cccc3ccccc13)nn2Cc1ccccc1 [Compound 5e, 1-benzyl-3-(naphthalen-1-ylmethyl)-1H-pyrazolo[3,4-d]pyrimidin-4-amine] | 1.85 | – | > 3 | IC50 ([1]; Table 3, average of three assays ± (SEM), read-out: CpCDPK1 IC50): > 3 µM
Nc1ncnc2c1c(Cc1cccc3ccccc13)nn2C1CCCCC1 [Compound 5f, 1-cyclohexyl-3-(naphthalen-1-ylmethyl)-1H-pyrazolo[3,4-d]pyrimidin-4-amine] | 0.946 | – | – | IC50 ([2]; read-out: TgCDPK1 IC50): 1 µM
CC(=O)N1CCC(n2nc(Cc3cccc4ccccc34)c3c(N)ncnc32)CC1 [Compound 5j, 1-(4-(4-amino-3-(naphthalen-1-ylmethyl)-1H-pyrazolo[3,4-d]pyrimidin-1-yl)piperidin-1-yl)ethanone] | 0.091 | 0.1 | 0.103 | –
CC(=O)N1CCC(Cn2nc(Cc3cccc4ccccc34)c3c(N)ncnc32)CC1 [Compound 5k, 1-(4-((4-amino-3-(naphthalen-1-ylmethyl)-1H-pyrazolo[3,4-d]pyrimidin-1-yl)methyl)piperidin-1-yl)ethanone] | 0.208 | – | – | IC50 ([1]; read-out: IC50 (μM) CpCDPK1): 0.36 µM
CC(=O)N1CCC(CCn2nc(Cc3cccc4ccccc34)c3c(N)ncnc32)CC1 [Compound 5l, 1-(4-(2-(4-amino-3-(naphthalen-1-ylmethyl)-1H-pyrazolo[3,4-d]pyrimidin-1-yl)ethyl)piperidin-1-yl)ethanone] | 0.104 | – | – | IC50 ([1]; read-out: IC50 (μM) CpCDPK1): 0.179 µM
CS(=O)(=O)N1CCC(Cn2nc(Cc3cccc4ccccc34)c3c(N)ncnc32)CC1 [Compound 5q, 1-((1-(methylsulfonyl)piperidin-4-yl)methyl)-3-(naphthalen-1-ylmethyl)-1H-pyrazolo[3,4-d]pyrimidin-4-amine] | 0.563 | 0.7 | 0.691 | –
CS(=O)(=O)N1CCC(CCn2nc(Cc3cccc4ccccc34)c3c(N)ncnc32)CC1 [Compound 5r, 1-(2-(1-(methylsulfonyl)piperidin-4-yl)ethyl)-3-(naphthalen-1-ylmethyl)-1H-pyrazolo[3,4-d]pyrimidin-4-amine] | 0.117 | 0.2 | 0.194 | –
CC(C)n1nc(-c2cccc(OCc3ccccc3)c2)c2c(N)ncnc21 [Compound 7aa, 3-(3-(benzyloxy)phenyl)-1-isopropyl-1H-pyrazolo[3,4-d]pyrimidin-4-amine] | 1.06 | – | – | inhibition of TgCDPK1 (in words) [2]: neither kinase is inhibited
CC(C)n1nc(-c2cccc(Cl)c2)c2c(N)ncnc21 [Compound 7b, 3-(3-chlorophenyl)-1-isopropyl-1H-pyrazolo[3,4-d]pyrimidin-4-amine] | 0.02 | 0.12 | 0.115 | –
CC(C)c1ccc(-c2nn(C(C)C)c3ncnc(N)c23)cc1 [Compound 7d, 1-isopropyl-3-(4-isopropylphenyl)-1H-pyrazolo[3,4-d]pyrimidin-4-amine] | 0.048 | 0.21 | 0.213 | –
Cc1ccc(-c2nn(C(C)C)c3ncnc(N)c23)cc1 [Compound 7f, 1-isopropyl-3-p-tolyl-1H-pyrazolo[3,4-d]pyrimidin-4-amine] | 0.013 | – | – | IC50 ([1]; read-out: IC50 (μM) CpCDPK1): 0.087 µM
Cc1ccc(-c2nn(C(C)C)c3ncnc(N)c23)cc1C [Compound 7h, 3-(3,4-dimethylphenyl)-1-isopropyl-1H-pyrazolo[3,4-d]pyrimidin-4-amine] | 0.009 | 0.022 | – | –
Cc1cc(-c2nn(C(C)C)c3ncnc(N)c23)ccc1F [Compound 7i, 3-(4-fluoro-3-methylphenyl)-1-isopropyl-1H-pyrazolo[3,4-d]pyrimidin-4-amine] | 0.009 | – | – | IC50 ([1]; read-out: IC50 (μM) CpCDPK1): 0.053 µM
CC(C)n1nc(-c2cccc3ccccc23)c2c(N)ncnc21 [Compound 7o, 1-isopropyl-3-(naphthalen-1-yl)-1H-pyrazolo[3,4-d]pyrimidin-4-amine] | 0.326 | 0.62 | – | –

Structure (SMILES) | IC50 ([2]; read-out: IC50 (μM) TgCDPK1) [µM] | IC50 ([1]; read-out: CpCDPK1 IC50) [µM] | IC50 [1, 7] [µM] | other results
COc1cc2ccccc2cc1-c1nn(C(C)C)c2ncnc(N)c12 [Compound 7s, 1-isopropyl-3-(3-methoxynaphthalen-2-yl)-1H-pyrazolo[3,4-d]pyrimidin-4-amine] | 0.863 | 0.6 | 0.591 | IC50 ([2]; read-out: TgCDPK1 IC50): 0.9 µM
CC(C)n1nc(-c2ccc3c(c2)CCCO3)c2c(N)ncnc21 [Compound 7w, 3-(chroman-6-yl)-1-isopropyl-1H-pyrazolo[3,4-d]pyrimidin-4-amine] | 0.017 | 0.11 | – | –
CC(C)n1nc(-c2cccc3c2sc2ccccc23)c2c(N)ncnc21 [Compound 7x, 3-(dibenzo[b,d]thiophen-4-yl)-1-isopropyl-1H-pyrazolo[3,4-d]pyrimidin-4-amine] | > 3 | – | > 3 | IC50 ([1]; Table 4, average of three assays ± (SEM), read-out: CpCDPK1 IC50): > 3 µM; IC50 ([2]; read-out: TgCDPK1 IC50): > 3 µM
CC(C)n1nc(-c2cccc(Cc3ccccc3)c2)c2c(N)ncnc21 [Compound 7y, 3-(3-benzylphenyl)-1-isopropyl-1H-pyrazolo[3,4-d]pyrimidin-4-amine] | 0.322 | – | – | inhibition of TgCDPK1 (in words) [2]: neither kinase is inhibited
CC(C)n1nc(-c2cccc(-c3ccccc3)c2)c2c(N)ncnc21 [Compound 7z, 3-(biphenyl-3-yl)-1-isopropyl-1H-pyrazolo[3,4-d]pyrimidin-4-amine] | 2.23 | – | – | inhibition of TgCDPK1 (in words) [2]: neither kinase is inhibited
Nc1ncnc2c1c(Cc1cccc3ccccc13)nn2C1CCCC1 [Compound 13, 1-cyclopentyl-3-(naphthalen-1-ylmethyl)-1H-pyrazolo[3,4-d]pyrimidin-4-amine] | 0.553 | – | 0.894 | –
CC(C)n1nc(Cc2ccc3ccccc3c2)c2c(N)ncnc21 [Compound 14, 1-isopropyl-3-(naphthalen-2-ylmethyl)-1H-pyrazolo[3,4-d]pyrimidin-4-amine] | 0.627 | – | 0.953 | –
Nc1ncnc2c1c(Cc1cccc3ccccc13)nn2C1CCOCC1 [Compound 15, 3-(naphthalen-1-ylmethyl)-1-(tetrahydro-2H-pyran-4-yl)-1H-pyrazolo[3,4-d]pyrimidin-4-amine] | 0.149 | – | 0.265 | –
CC(C)n1nc(-c2cccnc2)c2c(N)ncnc21 [Compound 16, 1-isopropyl-3-(pyridin-3-yl)-1H-pyrazolo[3,4-d]pyrimidin-4-amine] | 0.961 | – | > 3 | –
CC(C)n1nc(-c2cncnc2)c2c(N)ncnc21 [Compound 18, 1-isopropyl-3-(pyrimidin-5-yl)-1H-pyrazolo[3,4-d]pyrimidin-4-amine] | > 3 | – | > 3 | –
CC(C)n1nc(-c2ccnc(Cl)c2)c2c(N)ncnc21 [Compound 19, 3-(2-chloropyridin-4-yl)-1-isopropyl-1H-pyrazolo[3,4-d]pyrimidin-4-amine] | 0.0638 | – | 0.37 | –
CC(C)n1nc(-c2ccc3c(ccn3C)c2)c2c(N)ncnc21 [Compound 20, 1-isopropyl-3-(1-methyl-1H-indol-5-yl)-1H-pyrazolo[3,4-d]pyrimidin-4-amine] | – | – | 0.003 | Cell Toxicity HL60, % at 10 μM [3]: <30% at 10 μM; EC50 [4]: 0.309 µM; EC50 [5]: 0.231 µM; Cell Toxicity CRL8155, % at 10 μM [6]: <30% at 10 μM
CC(C)n1nc(-c2cccc(OCc3ccccc3Cl)c2)c2c(N)ncnc21 [Compound 21, 3-(3-(2-chlorobenzyloxy)phenyl)-1-isopropyl-1H-pyrazolo[3,4-d]pyrimidin-4-amine] | > 3 | – | > 3 | –
COc1cc(COc2cccc(-c3nn(C(C)C)c4ncnc(N)c34)c2)cc(OC)c1 [Compound 22, 3-(3-(3,5-dimethoxybenzyloxy)phenyl)-1-isopropyl-1H-pyrazolo[3,4-d]pyrimidin-4-amine] | 1.14 | – | > 3 | –
CC(C)n1nc(-c2ccc3cc(OCc4ccccc4Cl)ccc3c2)c2c(N)ncnc21 [Compound 46, 3-(6-(2-chlorobenzyloxy)naphthalen-2-yl)-1-isopropyl-1H-pyrazolo[3,4-d]pyrimidin-4-amine] | – | – | – | Cell Toxicity HL60, % at 10 μM [3]: <30% at 10 μM; EC50 [4]: 0.477 µM; EC50 [5]: > 3 µM; Cell Toxicity CRL8155, % at 10 μM [6]: <30% at 10 μM
CC(C)(C)c1nc(-c2cnc3ccccc3c2)c2c(N)nccn12 [Compound 72, 3-tert-butyl-1-(quinolin-3-yl)imidazo[1,5-a]pyrazin-8-amine] | – | – | – | Cell Toxicity HL60, % at 10 μM [3]: <30% at 10 μM; EC50 [4]: 0.948 µM; EC50 [5]: 0.241 µM; Cell Toxicity CRL8155, % at 10 μM [6]: <30% at 10 μM
Nc1ncnc2c1c(-c1ccc3nccnc3c1)nn2CC1CCNCC1 [Compound 122] | – | – | – | Cell Toxicity HL60, % at 10 μM [3]: <30% at 10 μM; Cell Toxicity HL60, % at 30 μM ([3]; 30 μM): <30% at 30 μM; EC50 [4]: 0.482 µM; EC50 [5]: > 3 µM; Cell Toxicity CRL8155, % at 10 μM [6]: <30% at 10 μM; Cell Toxicity CRL8155, % at 30 μM ([6]; 30 μM): <30% at 30 μM
